These results are taken from patent US11945798B2, “Substituted aminopyridine compounds as EGFR inhibitors” (YUHAN CORPORATION, priority 2021, dated 2024).

Where two headings read alike, the source gives them in different places. Some results are limits rather than exact numbers.

One test has as its target EGFR del19/T790M/C797S (Homo sapiens, UniProt P00533, C797S/DEL746-750/T790M). The test can be described thus: Biochemical EGFR kinase assay (Lance Ultra TR-FRET), del19/T790M/C797S. Put shortly: (§1)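 In this biochemical assay, phosphorylation after a one-hour room-temperature reaction was detected with europium-labelled anti-phosphopeptide antibody at 2 nM final concentration.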

Another test deals with EGFR L858R/T790M/C797S (Homo sapiens, UniProt P00533, C797S/L858R/T790M). The test can be described thus: Biochemical EGFR kinase assay (Lance Ultra TR-FRET), L858R/T790M/C797S. Put shortly:
as §1

Another test addresses EGFR del19/C797S (Homo sapiens, UniProt P00533, C797S/DEL746-750). The test can be described thus: Biochemical EGFR kinase assay (Lance Ultra TR-FRET), del19/C797S. Put shortly: as §1
For orientation: TR-FRET usually uses a lanthanide donor and a delayed reading to cut background.

The target in another test is EGFR L858R/C797S (Homo sapiens, UniProt P00533, C797S/L858R). The test can be described thus: Biochemical EGFR kinase assay (Lance Ultra TR-FRET), L858R/C797S. The procedure: Biochemical EGFR kinase assays were conducted using Lance Ultra time-resolved fluorescence resonance energy transfer (TR-FRET) technology from Perkin-Elmer. Compounds of the invention were initially diluted to 20 mM in 100% DMSO for storage and made into kinase buffer solution to create a compound concentration ranging from 0.003 μM and 10 μM.
EGFR L858R/C797S, sequence (P00533 25-1210 C797S/L858R): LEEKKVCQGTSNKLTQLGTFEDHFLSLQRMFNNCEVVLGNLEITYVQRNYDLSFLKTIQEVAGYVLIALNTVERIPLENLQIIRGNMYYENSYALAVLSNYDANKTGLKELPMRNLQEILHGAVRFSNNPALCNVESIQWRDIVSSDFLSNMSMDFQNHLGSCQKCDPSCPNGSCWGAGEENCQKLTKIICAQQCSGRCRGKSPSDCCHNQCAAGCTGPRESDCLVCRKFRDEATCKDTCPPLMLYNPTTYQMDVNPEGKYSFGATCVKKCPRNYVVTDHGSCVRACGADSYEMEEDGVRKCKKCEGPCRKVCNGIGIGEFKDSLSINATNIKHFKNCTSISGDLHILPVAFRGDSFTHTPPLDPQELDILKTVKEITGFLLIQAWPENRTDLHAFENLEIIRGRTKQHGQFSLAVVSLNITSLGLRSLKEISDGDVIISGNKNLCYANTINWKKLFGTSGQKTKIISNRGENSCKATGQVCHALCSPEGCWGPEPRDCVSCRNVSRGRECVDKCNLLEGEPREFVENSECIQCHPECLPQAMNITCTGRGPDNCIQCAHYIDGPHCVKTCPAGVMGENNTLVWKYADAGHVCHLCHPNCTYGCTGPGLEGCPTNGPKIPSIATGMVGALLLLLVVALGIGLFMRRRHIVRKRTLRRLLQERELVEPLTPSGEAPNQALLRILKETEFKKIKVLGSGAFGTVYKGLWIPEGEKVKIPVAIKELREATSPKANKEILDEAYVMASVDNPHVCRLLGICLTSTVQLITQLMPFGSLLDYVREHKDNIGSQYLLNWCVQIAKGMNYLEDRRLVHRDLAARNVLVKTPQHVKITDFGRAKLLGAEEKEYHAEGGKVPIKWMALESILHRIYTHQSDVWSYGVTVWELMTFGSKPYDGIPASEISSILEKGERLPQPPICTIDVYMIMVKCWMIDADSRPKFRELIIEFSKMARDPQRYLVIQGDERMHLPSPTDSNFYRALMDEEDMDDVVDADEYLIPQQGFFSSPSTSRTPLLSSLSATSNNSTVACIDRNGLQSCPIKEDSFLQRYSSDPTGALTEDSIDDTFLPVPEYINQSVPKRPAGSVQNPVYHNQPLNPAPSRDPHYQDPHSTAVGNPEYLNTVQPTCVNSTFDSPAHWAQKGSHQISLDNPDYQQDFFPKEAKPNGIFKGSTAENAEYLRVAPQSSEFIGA
Each kinase reactions were incubated at room temperature for 1 hour and then stopped by the addition of 4 μL of stop solution (10 mM EDTA). The specific Europium-labeled-anti-phosphopeptide antibody (PerkinElmer, AD0069) diluted in LANCE detection buffer was then added to a final concentration of 2 nM. After 60 minutes incubation at room temperature the LANCE signal was measured on an EnVision Multilabel Reader (Perkin-Elmer). Excitation wavelength was set at 320 nm and emission monitored at 615 nm (donor) and 665 nm (acceptor). The IC50 values were determined using GraphPad prism software (GraphPad Software, Inc., San Diego, CA, USA).

The target of the next test is EGFR wildtype (WT) (Homo sapiens, UniProt P00533). The test can be described thus: Biochemical EGFR kinase assay (Lance Ultra TR-FRET), wildtype. Put shortly: as §1
Where [1] appears, read: IC50 del19/T790M/C797S (nM) 100 μM ATP, 100 μM ATP.
[2] abbreviates: IC50 L858R/T790M/C797S (nM) 100 μM ATP, 100 μM ATP.
Where [3] appears, read: IC50 del19/C797S (nM) 100 μM ATP, 100 μM ATP.
[4] abbreviates: IC50 L858R/C797S (nM) 100 μM ATP, 100 μM ATP.
Setting [5] is: IC50 WT (nM) 100 μM ATP, 100 μM ATP.
Where [6] appears, read: Km ATP, read-out: IC50 del19/T790M/C797S (nM) Km ATP.
[7] abbreviates: Km ATP, read-out: IC50 L858R/T790M/C797S (nM) Km ATP.
Setting [8] is: Km ATP, read-out: IC50 del19/C797S (nM) Km ATP.
[9] abbreviates: Km ATP, read-out: IC50 L858R/C797S (nM) Km ATP.
Where [10] appears, read: Km ATP, read-out: IC50 WT (nM) Km ATP.

EGFR L858R/T790M/C797S, sequence (P00533 25-1210 T790M/C797S/L858R): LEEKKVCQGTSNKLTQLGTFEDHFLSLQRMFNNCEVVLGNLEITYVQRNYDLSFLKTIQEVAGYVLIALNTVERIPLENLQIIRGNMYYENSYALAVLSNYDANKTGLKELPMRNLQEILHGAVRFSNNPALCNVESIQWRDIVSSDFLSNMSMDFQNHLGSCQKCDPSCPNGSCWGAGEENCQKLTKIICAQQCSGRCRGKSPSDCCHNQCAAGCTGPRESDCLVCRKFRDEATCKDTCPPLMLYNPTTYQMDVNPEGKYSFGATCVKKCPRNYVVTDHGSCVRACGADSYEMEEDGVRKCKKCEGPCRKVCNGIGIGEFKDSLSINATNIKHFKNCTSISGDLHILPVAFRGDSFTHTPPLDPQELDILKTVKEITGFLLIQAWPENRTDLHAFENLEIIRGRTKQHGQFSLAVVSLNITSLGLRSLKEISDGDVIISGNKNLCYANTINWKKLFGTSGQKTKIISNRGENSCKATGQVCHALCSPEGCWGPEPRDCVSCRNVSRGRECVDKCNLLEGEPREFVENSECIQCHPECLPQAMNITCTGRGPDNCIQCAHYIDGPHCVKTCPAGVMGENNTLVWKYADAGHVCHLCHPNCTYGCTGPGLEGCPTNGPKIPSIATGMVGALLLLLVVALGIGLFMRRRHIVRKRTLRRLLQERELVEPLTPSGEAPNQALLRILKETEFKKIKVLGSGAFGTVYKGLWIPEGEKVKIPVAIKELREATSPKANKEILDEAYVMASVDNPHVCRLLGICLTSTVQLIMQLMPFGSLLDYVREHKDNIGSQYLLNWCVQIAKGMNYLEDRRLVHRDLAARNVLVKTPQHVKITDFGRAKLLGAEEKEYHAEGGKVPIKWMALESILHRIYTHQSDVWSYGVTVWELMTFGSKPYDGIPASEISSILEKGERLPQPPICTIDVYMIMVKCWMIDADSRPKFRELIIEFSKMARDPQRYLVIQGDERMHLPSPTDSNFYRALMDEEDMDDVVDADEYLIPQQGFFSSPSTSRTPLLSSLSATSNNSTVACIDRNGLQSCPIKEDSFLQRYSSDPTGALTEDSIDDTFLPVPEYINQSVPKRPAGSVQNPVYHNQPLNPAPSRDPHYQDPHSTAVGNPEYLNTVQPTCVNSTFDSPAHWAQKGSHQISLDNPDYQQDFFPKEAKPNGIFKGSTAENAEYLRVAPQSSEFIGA
EGFR del19/T790M/C797S, sequence (P00533 with tags, fused parts or gaps DEL746-750/T790M/C797S): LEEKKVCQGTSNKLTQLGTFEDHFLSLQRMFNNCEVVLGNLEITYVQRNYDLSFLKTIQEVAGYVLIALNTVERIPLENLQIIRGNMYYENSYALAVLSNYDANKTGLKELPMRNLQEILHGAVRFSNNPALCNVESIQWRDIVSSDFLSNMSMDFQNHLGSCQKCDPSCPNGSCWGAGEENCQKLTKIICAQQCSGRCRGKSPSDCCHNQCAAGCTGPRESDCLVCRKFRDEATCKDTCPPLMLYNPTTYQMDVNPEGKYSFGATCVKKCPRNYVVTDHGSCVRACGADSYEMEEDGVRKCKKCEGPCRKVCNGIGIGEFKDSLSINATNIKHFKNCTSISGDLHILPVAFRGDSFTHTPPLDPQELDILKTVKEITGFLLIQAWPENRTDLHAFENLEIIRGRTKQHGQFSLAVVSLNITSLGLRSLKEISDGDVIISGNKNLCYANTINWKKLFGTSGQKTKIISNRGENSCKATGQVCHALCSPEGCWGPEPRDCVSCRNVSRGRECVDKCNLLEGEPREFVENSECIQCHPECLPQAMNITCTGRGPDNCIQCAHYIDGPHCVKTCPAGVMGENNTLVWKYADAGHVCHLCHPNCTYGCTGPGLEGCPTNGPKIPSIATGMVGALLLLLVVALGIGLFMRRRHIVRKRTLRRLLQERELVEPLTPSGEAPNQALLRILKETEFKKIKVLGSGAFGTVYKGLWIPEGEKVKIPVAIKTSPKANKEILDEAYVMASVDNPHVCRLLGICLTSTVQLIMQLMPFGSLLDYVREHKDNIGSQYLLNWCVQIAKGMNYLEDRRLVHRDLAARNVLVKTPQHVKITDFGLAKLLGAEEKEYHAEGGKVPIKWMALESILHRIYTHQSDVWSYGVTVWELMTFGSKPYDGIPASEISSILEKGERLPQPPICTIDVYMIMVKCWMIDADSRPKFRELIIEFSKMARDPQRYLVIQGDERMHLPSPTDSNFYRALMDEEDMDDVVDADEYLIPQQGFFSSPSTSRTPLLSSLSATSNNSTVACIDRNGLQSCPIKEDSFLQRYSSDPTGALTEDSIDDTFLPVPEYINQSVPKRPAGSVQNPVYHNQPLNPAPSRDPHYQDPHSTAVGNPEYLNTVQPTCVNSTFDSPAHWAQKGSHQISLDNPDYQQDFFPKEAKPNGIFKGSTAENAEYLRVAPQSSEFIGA
EGFR del19/C797S, sequence (P00533 with tags, fused parts or gaps DEL746-750/C797S): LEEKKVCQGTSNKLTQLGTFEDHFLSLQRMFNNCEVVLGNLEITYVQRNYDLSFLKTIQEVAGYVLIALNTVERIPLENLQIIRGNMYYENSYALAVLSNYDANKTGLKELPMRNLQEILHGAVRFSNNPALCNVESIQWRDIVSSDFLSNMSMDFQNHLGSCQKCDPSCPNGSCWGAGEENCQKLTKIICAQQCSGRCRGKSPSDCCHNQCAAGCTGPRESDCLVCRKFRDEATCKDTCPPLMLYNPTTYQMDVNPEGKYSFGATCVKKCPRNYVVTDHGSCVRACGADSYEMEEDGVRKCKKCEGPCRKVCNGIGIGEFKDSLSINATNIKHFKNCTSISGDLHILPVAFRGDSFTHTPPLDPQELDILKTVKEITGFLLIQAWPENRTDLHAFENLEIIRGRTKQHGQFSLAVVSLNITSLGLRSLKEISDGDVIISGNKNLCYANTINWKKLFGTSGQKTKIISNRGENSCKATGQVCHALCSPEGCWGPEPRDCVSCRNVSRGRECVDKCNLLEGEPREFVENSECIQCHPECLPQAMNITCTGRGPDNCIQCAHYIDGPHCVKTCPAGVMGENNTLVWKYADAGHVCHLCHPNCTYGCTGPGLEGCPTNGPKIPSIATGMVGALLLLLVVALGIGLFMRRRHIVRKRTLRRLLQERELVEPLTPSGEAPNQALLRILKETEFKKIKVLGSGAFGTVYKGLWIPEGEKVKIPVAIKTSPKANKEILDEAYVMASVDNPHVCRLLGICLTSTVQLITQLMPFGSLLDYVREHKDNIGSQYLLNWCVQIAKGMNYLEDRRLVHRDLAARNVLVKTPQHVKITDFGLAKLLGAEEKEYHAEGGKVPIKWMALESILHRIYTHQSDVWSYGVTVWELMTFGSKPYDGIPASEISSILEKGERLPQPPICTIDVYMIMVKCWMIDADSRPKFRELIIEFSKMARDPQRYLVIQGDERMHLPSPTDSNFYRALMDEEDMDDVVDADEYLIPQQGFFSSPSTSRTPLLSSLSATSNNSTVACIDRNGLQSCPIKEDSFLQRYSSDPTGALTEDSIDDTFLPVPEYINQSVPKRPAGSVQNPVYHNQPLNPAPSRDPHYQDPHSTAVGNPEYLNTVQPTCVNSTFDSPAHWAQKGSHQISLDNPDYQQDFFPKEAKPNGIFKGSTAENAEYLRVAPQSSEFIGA

As to `O=C(c1cnc(Nc2ccnc(-c3cnn(S(=O)(=O)C4CC4)c3)n2)cc1N[C@@H]1CC[C@@H](O)C1)C1CC1` [Example 26, Cyclopropyl(6-((2-(1-(cyclopropylsulfonyl)-1H-pyrazol-4-yl)pyrimidin-4-yl)amino)-4-(((1R,3R)-3-hydroxycyclopentyl)amino)pyridin-3-yl)methanone], the IC50 against EGFR del19/T790M/C797S (setting [1]) is 2.9 nM; against EGFR L858R/T790M/C797S (setting [2]) it was 3.3 nM; on EGFR del19/C797S (setting [3]), 55.3 nM; at EGFR L858R/C797S (setting [4]) it was 118 nM; on EGFR wildtype (WT) (setting [5]) it was over 10000 nM.
Turning to `CC(C)NC[C@H]1CC[C@H](CNc2cc(Nc3ccnc(-c4cnn(S(=O)(=O)C5CC5)c4)n3)ncc2C(=O)C2CC2)CC1` [Example 69, Cyclopropyl(6-((2-(1-(cyclopropylsulfonyl)-1H-pyrazol-4-yl)pyrimidin-4-yl)amino)-4-((((1r,4r)-4-((isopropylamino)methyl)cyclohexyl)methyl)amino)pyridin-3-yl)methanone], the IC50 was 0.1 nM on EGFR del19/T790M/C797S (setting [6]); 0.1 nM at EGFR L858R/T790M/C797S (setting [7]); 0.8 nM at EGFR del19/C797S (setting [8]); 9.2 nM on EGFR L858R/C797S (setting [9]); 7.5 nM at EGFR wildtype (WT) (setting [10]).
As for `CN[C@H]1CC[C@H](CNc2cc(Nc3ccnc(-c4cnn(S(=O)(=O)C5CC5)c4)n3)ncc2C(=O)C2CC2)CC1` [Example 88, Cyclopropyl(6-((2-(1-(cyclopropylsulfonyl)-1H-pyrazol-4-yl)pyrimidin-4-yl)amino)-4-((((1r,4r)-4-(methylamino)cyclohexyl)methyl)amino)pyridin-3-yl)methanone], the IC50 against EGFR del19/T790M/C797S (setting [1]) is 0.1 nM; at EGFR del19/T790M/C797S (setting [6]), 0.1 nM; at EGFR L858R/T790M/C797S (setting [2]), 0.2 nM; at EGFR L858R/T790M/C797S (setting [7]), 0.1 nM; on EGFR del19/C797S (setting [3]), 2.6 nM; at EGFR del19/C797S (setting [8]) it was 1.6 nM. Moreover, the IC50 is 30.7 nM against EGFR L858R/C797S (setting [4]), 2.6 nM at EGFR L858R/C797S (setting [9]), 3160 nM on EGFR wildtype (WT) (setting [5]) and 24.6 nM on EGFR wildtype (WT) (setting [10]).
With `C[C@]1(O)CC[C@@H](Nc2cc(Nc3ccnc(-c4cnn(S(=O)(=O)C5CC5)c4)n3)ncc2C(=O)C2CC2)CC1` [Example 33, Cyclopropyl(6-((2-(1-(cyclopropylsulfonyl)-1H-pyrazol-4-yl)pyrimidin-4-yl)amino)-4-(((1s,4s)-4-hydroxy-4-methylcyclohexyl)amino)pyridin-3-yl)methanone], the IC50 at EGFR del19/T790M/C797S (setting [1]) was determined as 0.8 nM; on EGFR del19/T790M/C797S (setting [6]), 1 nM; against EGFR L858R/T790M/C797S (setting [2]), 0.8 nM; on EGFR L858R/T790M/C797S (setting [7]), 0.3 nM; on EGFR del19/C797S (setting [3]) it was 1.7 nM; at EGFR L858R/C797S (setting [4]) it was 6.5 nM. For the same molecule, the IC50 was 0.9 nM on EGFR L858R/C797S (setting [9]), over 10000 nM on EGFR wildtype (WT) (setting [5]) and 13.9 nM at EGFR wildtype (WT) (setting [10]).
As to `C[C@@H](CCO)Nc1cc(Nc2ccnc(-c3cnn(S(=O)(=O)C4CC4)c3)n2)ncc1C(=O)C1CC1` [Example 8, (S)-Cyclopropyl(6-((2-(1-(cyclopropylsulfonyl)-1H-pyrazol-4-yl)pyrimidin-4-yl)amino)-4-((4-hydroxybutan-2-yl)amino)pyridin-3-yl)methanone], the IC50 at EGFR del19/T790M/C797S (setting [6]) was 0.4 nM; on EGFR L858R/T790M/C797S (setting [7]) it was 1.4 nM; on EGFR del19/C797S (setting [8]), 61.6 nM; on EGFR L858R/C797S (setting [9]), 292 nM; at EGFR wildtype (WT) (setting [10]), 471 nM.
Regarding `O=C(c1cnc(Nc2ccnc(-c3cnn(S(=O)(=O)C4CC4)c3)n2)cc1N[C@H]1CC[C@](O)(CO)CC1)C1CC1` [Example 86, Cyclopropyl(6-((2-(1-(cyclopropylsulfonyl)-1H-pyrazol-4-yl)pyrimidin-4-yl)amino)-4-(((1s,4s)-4-hydroxy-(4-hydroxymethyl)cyclohexyl)amino)pyridin-3-yl)methanone], the IC50 against EGFR del19/T790M/C797S (setting [1]) was determined as 0.2 nM; on EGFR del19/T790M/C797S (setting [6]) it was 0.2 nM; against EGFR L858R/T790M/C797S (setting [2]), 0.3 nM; on EGFR L858R/T790M/C797S (setting [7]), 0.1 nM; against EGFR del19/C797S (setting [3]) it was 2.9 nM; on EGFR del19/C797S (setting [8]), 1.9 nM. Further, the IC50 against EGFR L858R/C797S (setting [4]) was 52.9 nM; on EGFR L858R/C797S (setting [9]), 4.3 nM; on EGFR wildtype (WT) (setting [5]), over 10000 nM; at EGFR wildtype (WT) (setting [10]), 47.6 nM.
`O=C(NCCF)c1cnc(Nc2ccnc(-c3cnn(S(=O)(=O)C4CC4)c3)n2)cc1N[C@H]1CC[C@@H](NCCF)CC1` [Example 77, 6-((2-(1-(Cyclopropylsulfonyl)-1H-pyrazol-4-yl)pyrimidin-4-yl)amino)-N-(2-fluoroethyl)-4-(((1s,4s)-4-((2-fluoroethyl)amino)cyclohexyl)amino)nicotinamide]: the IC50 on EGFR del19/T790M/C797S (setting [1]) is 0.9 nM; at EGFR del19/T790M/C797S (setting [6]), 0.2 nM; against EGFR L858R/T790M/C797S (setting [2]) it was 1.6 nM; on EGFR L858R/T790M/C797S (setting [7]) it was 0.1 nM; against EGFR del19/C797S (setting [3]) it was 19.3 nM; at EGFR del19/C797S (setting [8]), 5.6 nM. In addition, the IC50 at EGFR L858R/C797S (setting [4]) is 145 nM; on EGFR L858R/C797S (setting [9]) it was 9 nM; on EGFR wildtype (WT) (setting [5]) it was over 10000 nM; at EGFR wildtype (WT) (setting [10]), 57.4 nM.
On to `CC(=O)c1cnc(Nc2ccnc(-c3cnn(S(=O)(=O)C4CC4)c3)n2)cc1NC1CCC(CO)C1` (stereo not shown) [Example 47, 1-(6-((2-(1-Cyclopropylsulfonylpyrazol-4-yl)pyrimidin-4-yl)amino)-4-((3-(hydroxymethyl)cyclopentyl)amino)-3-pyridyl)ethanone], for which the IC50 was 0.1 nM on EGFR del19/T790M/C797S (setting [6]); 0.6 nM on EGFR L858R/T790M/C797S (setting [7]); 10.5 nM on EGFR del19/C797S (setting [8]); 51.3 nM on EGFR L858R/C797S (setting [9]); 145 nM at EGFR wildtype (WT) (setting [10]).
Take `O=C(c1cnc(Nc2ccnc(-c3cnn(S(=O)(=O)C4CC4)c3)n2)cc1NC1CCOCC1)C1CC1` [Example 35, Cyclopropyl(6-((2-(1-(cyclopropylsulfonyl)-1H-pyrazol-4-yl)pyrimidin-4-yl)amino)-4-((tetrahydro-2H-pyran-4-yl)amino)pyridin-3-yl)methanone]: the IC50 was 5.2 nM against EGFR del19/T790M/C797S (setting [1]); 23.1 nM on EGFR L858R/T790M/C797S (setting [2]); 602 nM against EGFR del19/C797S (setting [3]); 543 nM against EGFR L858R/C797S (setting [4]); over 10000 nM at EGFR wildtype (WT) (setting [5]).
Consider `O=C(c1cnc(Nc2ccnc(-c3cnn(S(=O)(=O)C4CC4)c3)n2)cc1N[C@H]1CC[C@@H](O)CC1)C1CC1` [Example 23, Cyclopropyl(6-((2-(1-(cyclopropylsulfonyl)-1H-pyrazol-4-yl)pyrimidin-4-yl)amino)-4-(((1s,4s)-4-hydroxycyclohexyl)amino)pyridin-3-yl)methanone], for which the IC50 at EGFR del19/T790M/C797S (setting [1]) was 0.7 nM; against EGFR L858R/T790M/C797S (setting [2]) it was 0.5 nM; on EGFR del19/C797S (setting [3]) it was 2.4 nM; on EGFR L858R/C797S (setting [4]), 6.4 nM; against EGFR wildtype (WT) (setting [5]), 3410 nM.
Regarding `O=C(c1cnc(Nc2ccnc(-c3cnn(S(=O)(=O)C4CC4)c3)n2)cc1NC[C@H]1CC[C@H](Cn2ccnc2)CC1)C1CC1` [Example 43, (4-((((1r,4r)-4-((1H-Imidazol-1-yl)methyl)cyclohexyl)methyl)amino)-6-((2-(1-(cyclopropylsulfonyl)-1H-pyrazol-4-yl)pyrimidin-4-yl)amino)pyridin-3-yl)(cyclopropyl)methanone], the IC50 at EGFR del19/T790M/C797S (setting [6]) stood at 1.3 nM; on EGFR L858R/T790M/C797S (setting [7]), 0.5 nM; at EGFR del19/C797S (setting [8]) it was 10.5 nM; on EGFR L858R/C797S (setting [9]), 24 nM; on EGFR wildtype (WT) (setting [10]) it was 64.1 nM.
Regarding `CN(C)Cc1ccc(CNc2cc(Nc3ccnc(-c4cnn(S(=O)(=O)C5CC5)c4)n3)ncc2C(=O)C2CC2)s1` [Example 20, Cyclopropyl(6-((2-(1-(cyclopropylsulfonyl)-1H-pyrazol-4-yl)pyrimidin-4-yl)amino)-4-(((5-((dimethylamino)methyl)thiophen-2-yl)methyl)amino)pyridin-3-yl)methanone], the IC50 on EGFR del19/T790M/C797S (setting [6]) worked out at 2.2 nM; at EGFR L858R/T790M/C797S (setting [7]), 3.9 nM; on EGFR del19/C797S (setting [8]), 415 nM; at EGFR L858R/C797S (setting [9]), 59.2 nM; on EGFR wildtype (WT) (setting [10]), 239 nM.
